For assay [1], the system named is E. coli UT189. As to the kind of experiment: Tissue culture-based microbial inhibition assay, intracellular E. coli infection of bladder epithelial cells. Format: cell-based, Escherichia coli. The settings on record: cultured bladder epithelial cells. Here is the method: FIGS. 3A-D show PRINT-Levofloxacin provides prolonged protection against intracellular E. coli infection. UROTSA bladder epithelial cell monolayers were incubated with media, free levofloxacin (FREE LEVO), blank PRINT particles (BLANK PRINT), or a formulation of PRINT encapsulated levofloxacin (PRINT-LEVO) for 1 hour. Each treatment was removed, the cells were washed, and the cells were immediately infected with E. coli UT189 (FIG. 3A), 8 hours later (FIG. 3B), or 18 hours later (FIG. 3C). After 1 hour of infection with E. coli, the medium was replaced with medium containing gentamicin to eliminate extracellular bacteria. Viable bacteria in the bladder epithelial cells were enumerated 24 hours later. The formulations and associated sizes and charges are shown for reference (FIG. 3D). Tissue culture-based microbial inhibition assays-Bladder epithelial cell lines 5637 and UROTSA have been previously described. Tissue culture cells were growth in RPMI 1640 media to 80% confluence and lifted using trypsin-EDTA (Sigma-Aldrich). Twenty four well plates (Genesee Scientific) were seeded with 5637 cells and grown for 2 days at 37° C., 5% CO2 prior to infections. Where appropriate to the assay conditions, unencapsulated (“free”) levofloxacin was added to the wells one hour prior to infection and at the same concentration as wells treated with PRINT-levofloxacin particles. […]

In assay [2] the test system is E. coli UT189. Description: Rat spinal cord injury UTI infection model. The class given is in vivo, Escherichia coli. Particulars: female SCI rats, single intracystic dose, drained after 1 hour, infected 8 hours later, bladder and kidney. Here is the method: FIGS. 6A-C show PRINT-LEVO provides sustained protection against E. coli UTI in the SCI rat. Female SCI rats were treated by transurethral catheterization and instillation of a volume equivalent to their previously determined residual urine volume containing PBS, PBS with free levofloxacin (5 μg/ml), PRINT-LEVO (formula D5), or BLANK PRINT particles (wt/vol equivalent to PRINT-LEVO). After 1 hour of treatment, all animals had their bladder creded to remove each treatment. The animals were infected with E. coli at increasing time intervals following the administration and drainage of the test or control agents from the bladder: 4 hours (FIG. 6A), 8 hours (FIG. 6B), or 18 hours (FIG. 6C). Bacteria were counted in the bladders and kidneys 24 hours after infection with E. coli by tissue homogenization and plating of dilutions on solid agar medium. Horizontal bars indicate the geometric means.
As described previously, female Sprague-Dawley rats (Harlan; 175-200 gm) underwent controlled surgical T10 spinal cord transection to model spinal cord injury and produce a neurogenic bladder phenotype. […] Due to the spinal cord injury and subsequent neurogenic bladder phenotypes, animals were routinely monitored and creded to relieve urinary retention each 12 hours. […]

The structures appear in SMILES notation. A value given as a limit tells only on which side of the number the result lay.

Take `C[C@H]1COc2c(N3CCN(C)CC3)c(F)cc3c(=O)c(C(=O)O)cn1c23` [free levofloxacin, levofloxacin]: the “time to loss of significant effectiveness after a single dose” value in the assay on E. coli UT189 [1] is at most 1 h. Moreover, the “protection against E. coli infection (animals infection-free), 8 hour delay” value in the assay with E. coli UT189 [2] was determined as 12.5%.

(Values after US20200046720A1, “ENGINEERED BIOCOMPATIBLE ANTIBIOTIC PARTICLES AND THEIR USE AGAINST URINARY TRACT INFECTION” (The University of North Carolina at Chapel Hill, priority 2016, published 2020).)
